This assay addresses T1, human FSH receptor (Homo sapiens, UniProt P23945).
T1 construct: expressed in transfected cells
T1 sequence (P23945 18-695): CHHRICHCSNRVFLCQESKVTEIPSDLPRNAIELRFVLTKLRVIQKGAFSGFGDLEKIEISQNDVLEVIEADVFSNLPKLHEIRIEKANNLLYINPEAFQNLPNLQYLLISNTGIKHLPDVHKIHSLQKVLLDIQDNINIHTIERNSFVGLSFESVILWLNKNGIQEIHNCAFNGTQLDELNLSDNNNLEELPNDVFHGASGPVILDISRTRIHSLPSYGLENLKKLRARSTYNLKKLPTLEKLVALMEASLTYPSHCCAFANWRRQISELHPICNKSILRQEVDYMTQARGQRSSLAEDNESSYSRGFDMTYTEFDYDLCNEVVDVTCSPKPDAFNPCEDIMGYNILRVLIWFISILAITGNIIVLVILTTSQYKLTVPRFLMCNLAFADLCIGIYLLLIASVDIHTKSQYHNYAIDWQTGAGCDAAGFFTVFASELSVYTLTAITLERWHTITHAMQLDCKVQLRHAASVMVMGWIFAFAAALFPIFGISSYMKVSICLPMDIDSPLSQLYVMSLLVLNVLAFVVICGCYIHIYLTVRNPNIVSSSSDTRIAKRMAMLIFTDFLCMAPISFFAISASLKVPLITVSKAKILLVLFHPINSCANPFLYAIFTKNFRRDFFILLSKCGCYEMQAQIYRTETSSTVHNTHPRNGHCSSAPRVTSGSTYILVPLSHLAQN
Put plainly: hFSHRago (CHO luc): agonistic activity at the human FSH receptor expressed in CHO cells, CRE-luciferase reporter. It is filed as cell-based. As to conditions: CHO cells stably transfected with human FSH receptor and CRE/luciferase reporter; 4 hours of incubation.
What is called EC50 is the concentration needed to bring the measured effect to its halfway point. A higher EC50 goes with a need for much substance. `COc1cc2c(cc1OCCCN=[N+]=[N-])-c1c(-c3cccs3)cc(C(=O)N(C)C(C)(C)C)n1CC2` [Example 70f, 9-(3-Azido-propoxy)-8-methoxy-1-thiophen-2-yl-5,6-dihydro-pyrrolo[2,1-α]isoquinoline-3-carboxylic acid tert-butyl-methyl-amide] yielded an EC50 of 10.9 nM.

Take `COc1cc2c(cc1OCCCN)-c1c(-c3cccs3)cc(C(=O)N(C)C(C)(C)C)n1CC2` [Example 70g, 9-(3-Amino-propoxy)-8-methoxy-1-thiophen-2-yl-5,6-dihydro-pyrrolo[2,1-α]iso-quinoline-3-carboxylic acid tert-butyl-methyl-amide]: a half-maximal effect (EC50) was put at 111 nM.

The compound `COc1cc2c(cc1OCCSC)-c1c(-c3cccs3)cc(C(=O)N(C)C(C)(C)C)n1CC2` [Example 71, 8-Methoxy-9-(2-methylsulfanyl-ethoxy)-1-thiophen-2-yl-5,6-dihydro-pyrrolo[2,1-α]isoquinoline-3-carboxylic acid tert-butyl-methyl-amide] displayed an EC50 of 26.3 nM.

`COc1cc2c(cc1OCCS(C)(=O)=O)-c1c(-c3cccs3)cc(C(=O)N(C)C(C)(C)C)n1CC2` [Example 72, 9-(2-Methanesulfonyl-ethoxy)-8-methoxy-1-thiophen-2-yl-5,6-dihydro-pyrrolo[2,1-α]isoquinoline-3-carboxylic acid tert-butyl-methyl-amide] displayed an EC50 of 16.9 nM.

Consider `COc1cc2c(cc1OCCN(C)C)-c1c(-c3cccs3)cc(C(=O)N(C)C(C)(C)C)n1CC2` [Example 73, 9-(2-Dimethylamino-ethoxy)-8-methoxy-1-thiophen-2-yl-5,6-dihydro-pyrrolo[2,1-α]isoquinoline-3-carboxylic acid tert-butyl-methyl-amide; trifluoro acetic acid], for which the midpoint of the response, the EC50, lay at 118 nM.

For `COc1cc2c(cc1OCC1CC1)-c1c(-c3cccs3)cc(C(=O)N3CCCN(C(C)=O)CC3)n1CC2` [Example 77, 1-[4-(9-Cyclopropylmethoxy-8-methoxy-1-thiophen-2-yl-5,6-dihydro-pyrrolo[2,1-α]iso-quinoline-3-carbonyl)-perhydro-1,4-diazepin-1-yl]-ethanone], the midpoint of the response, the EC50, lay at 57.6 nM.

On to `COc1cc2c(cc1OCC1CCCO1)-c1c(-c3cccs3)cc(C(=O)N3CCCN(C(C)=O)CC3)n1CC2` (stereo not drawn) [Example 78, 1-{4-[8-Methoxy-9-(tetrahydro-furan-2-ylmethoxy)-1-thiophen-2-yl-5,6-dihydro-pyrrolo[2,1-α]isoquinoline-3-carbonyl]-perhydro-1,4-diazepin-1-yl}-ethanone], for which the half-maximal effective concentration (EC50) is 96.2 nM.

Turning to `COc1cc2c(cc1OC1CCCC1)-c1c(-c3cccs3)cc(C(=O)N3CCCN(C(C)=O)CC3)n1CC2` [Example 79, 1-[4-(9-Cyclopentyloxy-8-methoxy-1-thiophen-2-yl-5,6-dihydro-pyrrolo[2,1-α]isoquinoline-3-carbonyl)-perhydro-1,4-diazepin-1-yl]-ethanone], a half-maximal effect (EC50) was put at 14.2 nM.

For `COc1cc2c(cc1OCCC(C)C)-c1c(-c3cccs3)cc(C(=O)N3CCCN(C(C)=O)CC3)n1CC2` [Example 80, 1-{4-[8-Methoxy-9-(3-methyl-butoxy)-1-thiophen-2-yl-5,6-dihydro-pyrrolo[2,1-α]isoquinoline-3-carbonyl]-perhydro-1,4-diazepin-1-yl}-ethanone], the midpoint of the response, the EC50, lay at 101 nM.

As to `COc1cc2c(cc1CC(C)C)-c1c(-c3cccs3)cc(C(=O)N(C)C(C)(C)CO)n1CC2` [Example 81, 9-Isobutyl-8-methoxy-1-thiophen-2-yl-5,6-dihydro-pyrrolo[2,1-α]isoquinoline-3-carboxylic acid (2-hydroxy-1,1-dimethyl-ethyl)-methyl-amide], the response was half-maximal at 6 nM (EC50).

As for `COC1=CC2CCn3c(C(=O)N4CCCN(C(=O)C5CCC5)CC4)cc(-c4cccs4)c3C2C=C1Br` (stereo not drawn) [Example 82, (9-Bromo-8-methoxy-1-thiophen-2-yl-5,6,6a,10a-tetrahydro-pyrrolo[2,1--α]isoquinolin-3-yl)-(4-cyclobutanecarbonyl-[1,4]diazepan-1-yl)-methanone], the concentration giving a half-maximal response (EC50) was found to be 5.8 nM.

These data come from patent US8394789B2, “(Dihydro)pyrrolo[2,1-α]isoquinolines” (MSD Oss B.V., priority 2008, dated 2013).
